Measurements reported in paper PMC9347360 (RSC Chemical Biology, 2022).
Where a SMILES comes first, the peptide text is derived from it.

Columns and labels:
wild type BRD1-BD = target: T1, wild type BRD1-BD (Homo sapiens, UniProt O95696); test: ITC binding to wild type BRD1 bromodomain
T1 sequence (O95696 562-666 limits assumed): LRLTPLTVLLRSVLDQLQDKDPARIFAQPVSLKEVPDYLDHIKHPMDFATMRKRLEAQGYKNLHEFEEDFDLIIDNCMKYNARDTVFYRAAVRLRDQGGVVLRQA

BRD4-BD1 [1] = conditions: as measured previously; cited from earlier work
BRD4-BD1 [2] = test: ITC binding to BRD4-BD1; conditions: BRD4-BD1 Kd (ref 36) compared to that of BRD1-BD

Question: Which Kd (wild type BRD1-BD) does the source give for CC(=O)NCCCC[C@H](NC(=O)CNC(=O)[C@H](C)NC(=O)[C@H](C)NC(=O)[C@H](CCCCNC(C)=O)NC(=O)[C@H](C)N)C(=O)N[C@@H](CC(C)C)C(=O)N[C@@H](CCCCNC(C)=O)C(=O)N[C@@H](C)C(N)=O [peptide 6] (H-AK(Ac)AAGK(Ac)LK(Ac)A-NH2) here?
Answer: The Kd was 24.5 ± 11.7 µM.

Question: What about the Kd (BRD4-BD1 [1]) of the same compound?
Answer: The Kd was 353 µM.

Question: What about the “Kd for BRD4-BD1 relative to BRD1-BD (fold higher)” value (BRD4-BD1 [2]) of the same compound?
Answer: Its value is “about 15 fold”.
